According to PMC4459817, “Vasculotide reduces endothelial permeability and tumor cell extravasation in the absence of binding to or agonistic activation of Tie2” (EMBO Molecular Medicine, 2015):

How the values were obtained:
[1] = system: advanced metastatic breast cancer; conditions: ref Yardley et al, 2012; cited from earlier work
From the text: Another possible explanation for the apparent insensitivity of MBC to TKI treatments is that the growth of secondary tumors post-metastatic colonization of the lung/liver may still be susceptible to the intended anti-angiogenic inhibition, but that these growth-inhibitory benefits may be diluted by concurrent unintended drug effects that promote tumor spread.

[2] = system: mouse model of skin toxicity from cancer radiotherapy; conditions: ref Korpela et al, 2014; cited from earlier work
From the text: (§1) For therapeutic use, recombinant variants or mimetics of multimeric Ang1 have been engineered, including Ang1* and Ang-F1-Fc-F1/Bow-Ang1 (Davis et al, [2003]; Daly et al, [2013]), MAT-Ang1 and COMP-Ang1 (Cho et al, [2004]; Koh, [2013]). […] The development of VT was inspired by a 2004 paper, where several heptapeptides—with no sequence homology to Ang1—were identified to have Tie2-binding potential through an ...

[3] = system: in vivo model of abdominal sepsis; conditions: ref Kumpers et al, 2011; cited from earlier work
From the text: as §1

[4] = system: lung vascular hyperpermeability in endotoxemic mice; conditions: ref David et al, 2011; cited from earlier work
From the text: as §1

[5] = system: Tie2; conditions: PEGylated VT, earlier reports; ref not printed at the statement; cited from earlier work
From the text: as §1

[6] = system: HT29luc metastases in YFP-SCID mice; assay: experimental HT29luc liver/lymphatic metastasis model (IV); format: in vivo, human HT29luc cells in YFP-SCID mice; conditions: VT vs PBS; Fig3A–D; 35DPI imaging
From the text: Figure 3 Vasculotide has no effect on experimental liver metastases from a colon cancer cell line (HT29^luc), nor on experimental lung metastases from a renal cancer cell line (SN12^luc) • A–D An experiment where HT29^luc tumor cells were implanted intravenously into YFP-SCID mice. (A) Kaplan–Meier survival analysis. (B) Quantification of total metastatic burden in the liver and lymphatics, at 35 days post-implantation (DPI), from whole-body bioluminescent imaging (C). (D) Photograph of typical liver metastases. • E–G An experiment where SN12^luc tumor cells were implanted intravenously into YFP-SCID mice. (E) Kaplan–Meier survival analysis. (F) Quantification of total metastatic burden at 50DPI, mostly within the lungs, from whole-body bioluminescent imaging (G). […]
For in vivo BI: Mice were injected intraperitoneally with 150mg/kg luciferin (Promega) 10 minutes prior to and anesthetized with isofluorane just before luminescent pseudocolor imaging (uniform settings: CCD camera locked at -105 °C, exposure=60s, f/1, subject size=1.5cm, bin=8, FOV=23.2cm, full image correction) using the IVIS 200 Imaging System (Caliper/PerkinElmer). Using the Living Image software (v2.50.1, Xenogen), weekly images were analyzed under uniform color range on grayscale photographic overlay. […]

Compound	response rate, distally disseminated visceral metastatic disease [1]	response rate, locoregionally growing superficial metastatic disease [1]	wound healing [2]	intraperitoneal leukocyte influx [3]	inflammatory induction of lung vascular hyperpermeability [4]	Tie2 phosphorylation [5]	survival, metastatic burden (IVBI) and liver-specific metastases [6]
CCN(CC)CCNC(=O)c1c(C)[nH]c(/C=C2\C(=O)Nc3ccc(F)cc32)c1C [sunitinib, reference compound]	9%	20%	–	–	–	–	–
CHHHRHSF [Vasculotide, 4-armed maleimide-functionalized polyethylene glycol (PEG) backbone to link together four cysteine-capped T7 peptides, that is, CHHHRHSF]	–	–	promoted wound healing	reduced intraperitoneal leukocyte influx	prevented inflammatory induction of lung vascular hyperpermeability	reportedly activates Tie2 phosphorylation	No significant differences
